Results on 17 compounds are retold here after PubChem BioAssay AID248 (DTP/NCI, 2004).

The subject of the assay is L1210 leukemia ip in BDF1 mice, survival T/C. Briefly: NCI In Vivo Anticancer Drug Screen. Data for tumor model L1210 Leukemia (intraperitoneal) in B6D2F1 (BDF1) mice. The settings on record: endpoint: mean survival time, higher = longer survival. The method, boiled down: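 Ratio derived from survival: compound-dosed mice over vehicle-dosed mice, all bearing a transplantable tumor.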

The mark [1] stands for this setting: dose: 100.0 mg/kg/injection, schedule: Q01DX009 (ip), vehicle: Klucel (hydroxypropylcellulose) (HPC).
[2] abbreviates: dose: 100.0 mg/kg/injection, schedule: Q04DX003 (ip), vehicle: Klucel (hydroxypropylcellulose) (HPC).
Setting [3] is: dose: 200.0 mg/kg/injection, schedule: Q01DX009 (ip), vehicle: Klucel (hydroxypropylcellulose) (HPC).
[4] abbreviates: dose: 200.0 mg/kg/injection, schedule: Q04DX003 (ip), vehicle: Klucel (hydroxypropylcellulose) (HPC).
The mark [5] stands for this setting: dose: 400.0 mg/kg/injection, schedule: Q01DX009 (ip), vehicle: Klucel (hydroxypropylcellulose) (HPC).
Setting [6] is: dose: 400.0 mg/kg/injection, schedule: Q04DX003 (ip), vehicle: Klucel (hydroxypropylcellulose) (HPC).
[7] abbreviates: dose: 100.0 mg/kg/injection, schedule: Q01DX001 (ip), vehicle: saline.
The mark [8] stands for this setting: dose: 200.0 mg/kg/injection, schedule: Q01DX001 (ip), vehicle: saline.
Setting [9] is: dose: 100.0 mg/kg/injection, schedule: Q04DX003 (ip), vehicle: saline.
[10] abbreviates: dose: 100.0 mg/kg/injection, schedule: Q01DX001 (ip), vehicle: Klucel (hydroxypropylcellulose) (HPC).
Where [11] appears, read: dose: 200.0 mg/kg/injection, schedule: Q01DX001 (ip), vehicle: Klucel (hydroxypropylcellulose) (HPC).
[12] abbreviates: dose: 400.0 mg/kg/injection, schedule: Q01DX001 (ip), vehicle: Klucel (hydroxypropylcellulose) (HPC).
Setting [13] is: dose: 100.0 mg/kg/injection, schedule: Q04DX003 (ip), vehicle: saline with Tween-80.
[14] abbreviates: dose: 200.0 mg/kg/injection, schedule: Q04DX003 (ip), vehicle: saline with Tween-80.
The mark [15] stands for this setting: dose: 400.0 mg/kg/injection, schedule: Q04DX003 (ip), vehicle: saline with Tween-80.
[16] abbreviates: dose: 100.0 mg/kg/injection, schedule: Q01DX009 (ip), vehicle: saline.
Setting [17] is: dose: 200.0 mg/kg/injection, schedule: Q04DX003 (ip), vehicle: saline.
Setting [18] is: dose: 400.0 mg/kg/injection, schedule: Q04DX003 (ip), vehicle: saline.
Setting [19] is: dose: 100.0 mg/kg/injection, schedule: Q04DX002 (ip), vehicle: saline.
The mark [20] stands for this setting: dose: 400.0 mg/kg/injection, schedule: Q04DX002 (ip), vehicle: saline.

Several values for one entry are separate records, joined by “and”; a condition that tells them apart may be missing. Identical values can stand only once. Inconclusive results and toxic doses are left out.

Take `Oc1ccc2ccc3[nH]cnc3c2c1`: the T/C under setting [1] was 101 % of control; the T/C under setting [2] is 95 % of control; the T/C under setting [3] is 104 % of control; the T/C under setting [4] was 95 % of control; the T/C under setting [5] is 97 % of control; the T/C under setting [6] is 94 % of control.
For the compound `O=C(O)c1ccc(Br)s1`, the T/C is 97 % of control under setting [7] and 99 % of control under setting [8].
`CC(=O)COc1cccc2ccccc12`: the T/C runs as follows: (dose: 100.0 mg/kg/injection, schedule: Q01DX009 (ip), vehicle: gum acacia) 100 % of control; (dose: 200.0 mg/kg/injection, schedule: Q01DX009 (ip), vehicle: gum acacia) 99 % of control; (dose: 400.0 mg/kg/injection, schedule: Q01DX009 (ip), vehicle: gum acacia) 97 % of control.
Turning to `CN=C(NC)c1ccc(NC(=O)c2ccc(C(=O)Nc3ccc(C(=NC)NC)cc3)cc2)cc1`, the T/C is 96 % of control and 124 % of control (dose: 0.23 mg/kg/injection, schedule: Q01DX Z (ip), vehicle: methylcellulose (MC)); 110 % of control and 177 % of control and 205 % of control (dose: 0.9 mg/kg/injection, schedule: Q01DX Z (ip), vehicle: methylcellulose (MC)); 150 % of control (dose: 1.87 mg/kg/injection, schedule: Q01DX Z (ip), vehicle: methylcellulose (MC)); 124 % of control (dose: 1.9 mg/kg/injection, schedule: Q01DX Z (ip), vehicle: methylcellulose (MC)); 161 % of control (dose: 3.75 mg/kg/injection, schedule: Q01DX Z (ip), vehicle: methylcellulose (MC)); 160 % of control (dose: 7.5 mg/kg/injection, schedule: Q01DX Z (ip), vehicle: methylcellulose (MC)). Further, the T/C reads like this: (dose: 15.0 mg/kg/injection, schedule: Q01DX Z (ip), vehicle: methylcellulose (MC)) 124 % of control; (dose: 15.0 mg/kg/injection, schedule: Q01DX Z (oral), vehicle: carboxymethylcellulose (CMC)) 111 % of control; (dose: 30.0 mg/kg/injection, schedule: Q01DX Z (ip), vehicle: methylcellulose (MC)) 108 % of control; (dose: 30.0 mg/kg/injection, schedule: Q01DX Z (oral), vehicle: carboxymethylcellulose (CMC)) 102 % of control; (dose: 60.0 mg/kg/injection, schedule: Q01DX Z (oral), vehicle: carboxymethylcellulose (CMC)) 107 % of control; (dose: 120.0 mg/kg/injection, schedule: Q01DX Z (oral), vehicle: carboxymethylcellulose (CMC)) 96 % of control. Moreover, the T/C is 115 % of control (dose: 240.0 mg/kg/injection, schedule: Q01DX Z (oral), vehicle: carboxymethylcellulose (CMC)) and 113 % of control (dose: 480.0 mg/kg/injection, schedule: Q01DX Z (oral), vehicle: carboxymethylcellulose (CMC)).
For `CCCC1(CN2c3ccccc3Sc3ccc(Cl)cc32)CCN(CC)C1` (stereo not given), the T/C under setting [9] is 90 % of control.
Take `CC(C)C1CC(C)(C)c2cc(O)ccc2O1` (stereo not given): the T/C under setting [2] was 101 % of control, the T/C under setting [4] was 105 % of control and the T/C under setting [6] was 100 % of control.
Take `CCS(=O)(=O)CS(=O)(=O)C(C)(C)C`: the T/C is 98 % of control under setting [10], 91 % of control under setting [11] and 94 % of control under setting [12].
For `C=CCCCCCCCCC(=O)NCC1CC1`, the T/C under setting [13] is 98 % of control, the T/C under setting [14] is 92 % of control and the T/C under setting [15] is 88 % of control.
For the compound `Cc1c(NC(=O)Nc2ccc(F)c([N+](=O)[O-])c2)c(=O)n(-c2ccccc2)n1C`, the T/C runs as follows: under setting [1], 102 % of control; under setting [3], 96 % of control; under setting [5], 103 % of control.
`C[n+]1cccc(O)c1`: the T/C runs as follows: (dose: 67.0 mg/kg/injection, schedule: Q04DX003 (ip), vehicle: saline) 105 % of control; under setting [16], 90 % of control; under setting [9], 107 % of control; (dose: 150.0 mg/kg/injection, schedule: Q04DX003 (ip), vehicle: saline) 105 % of control; (dose: 200.0 mg/kg/injection, schedule: Q01DX009 (ip), vehicle: saline) 93 % of control; under setting [17], 124 % of control. Moreover, the T/C is, setting by setting: (dose: 400.0 mg/kg/injection, schedule: Q01DX009 (ip), vehicle: saline) 92 % of control; under setting [18], 97 % of control.
Regarding `Cn1c(=O)c2[nH]cnc2n(C)c1=O`, the T/C is, setting by setting: (dose: 18.25 mg/kg/injection, schedule: Q01DX Z (ip), vehicle: carboxymethylcellulose (CMC)) 105 % of control; (dose: 36.5 mg/kg/injection, schedule: Q01DX Z (ip), vehicle: carboxymethylcellulose (CMC)) 107 % of control; (dose: 63.0 mg/kg/injection, schedule: Q01DX Z (ip), vehicle: carboxymethylcellulose (CMC)) 92 % of control; (dose: 100.0 mg/kg/injection, schedule: Q01DX001 (ip), vehicle: carboxymethylcellulose (CMC)) 98 % of control; (dose: 126.0 mg/kg/injection, schedule: Q01DX Z (ip), vehicle: carboxymethylcellulose (CMC)) 98 % of control; (dose: 200.0 mg/kg/injection, schedule: Q01DX001 (ip), vehicle: carboxymethylcellulose (CMC)) 98 % of control. Under “dose: 400.0 mg/kg/injection, schedule: Q01DX001 (ip), vehicle: carboxymethylcellulose (CMC)”, the T/C is 96 % of control.
Consider `NC1CCC(C(=O)O)NC1` (stereo not given), for which the T/C is, setting by setting: under setting [9], 104 % of control; under setting [17], 107 % of control; under setting [18], 109 % of control.
Consider `CCCCCCCC(=O)N(CC)CC`, for which the T/C runs as follows: (dose: 25.0 mg/kg/injection, schedule: Q04DX002 (ip), vehicle: saline) 103 % of control; (dose: 50.0 mg/kg/injection, schedule: Q01DX009 (ip), vehicle: saline) 97 % of control; (dose: 50.0 mg/kg/injection, schedule: Q04DX002 (ip), vehicle: saline) 103 % of control; under setting [16], 101 % of control; under setting [19], 100 % of control; (dose: 200.0 mg/kg/injection, schedule: Q04DX002 (ip), vehicle: saline) 100 % of control and 102 % of control. Also, the T/C under setting [20] is 102 % of control.
With `CC(=O)OC1CCC2(C)C(CCC3C2CCC2(C)C(C(C)C(=O)O)CCC32)C1` (stereo not given), the T/C (dose: 100.0 mg/kg/injection, schedule: Q04DX002 (ip), vehicle: Klucel (hydroxypropylcellulose) (HPC)) is 100 % of control; the T/C under setting [13] was 104 % of control; the T/C (dose: 200.0 mg/kg/injection, schedule: Q04DX002 (ip), vehicle: Klucel (hydroxypropylcellulose) (HPC)) was 97 % of control; the T/C under setting [14] is 98 % of control; the T/C (dose: 400.0 mg/kg/injection, schedule: Q04DX002 (ip), vehicle: Klucel (hydroxypropylcellulose) (HPC)) was 94 % of control; the T/C under setting [15] was 93 % of control.
For `CC(CCN)(CCN)[N+](=O)[O-]`, the T/C was 98 % of control under setting [7]; 92 % of control under setting [8]; 93 % of control (dose: 400.0 mg/kg/injection, schedule: Q01DX001 (ip), vehicle: saline).
For `OC1CCCCC1C1CCCCC1` (stereo not given), the T/C was 94 % of control (dose: 50.0 mg/kg/injection, schedule: Q01DX009 (ip), vehicle: saline with Tween-80); 94 % of control (dose: 100.0 mg/kg/injection, schedule: Q01DX009 (ip), vehicle: saline with Tween-80); 121 % of control under setting [19]; 107 % of control (dose: 300.0 mg/kg/injection, schedule: Q04DX002 (ip), vehicle: saline); 100 % of control under setting [20].
On to `CC(CO)CCC(=O)C(C)C1C(=O)CC2CC3CC(O)CCC3(C)CC21C` (stereo not given), for which the T/C reads like this: under setting [10], 98 % of control; under setting [11], 105 % of control; under setting [12], 119 % of control.
